Test [1] deals with metastatic, well- or moderately differentiated, non-functional enteropancreatic NET. To be noted: patients, CLARINET trial, placebo 18 months; cited from earlier work. The source says:
Somatostatin analogs (SSAs) are well-established antisecretory drugs with a favorable safety profile that have been used as first-line treatment to control hormone hypersecretion in functionally active neuroendocrine tumors (NET) for more than 30 years ([1], [2]). […] The relevance of SSAs in antiproliferative treatment has been a matter of debate for the past two decades.

In test [2] the test system is SSTR-binding sites at the cell surface of QGP-1 cells. Put plainly: competitive [125I]-Tyr11-SST14 radioligand binding assay, QGP-1 cells. On the set-up: species or system human. To be noted: only background binding, unlabeled peptide 0.01 nM–10 µM. The procedure: (§1) Peptide iodination and radioligand-binding assays were performed as previously described ([21]). Briefly, 10 nmol Tyr^11-somatostatin-14 (Tyr^11–SST14, Bachem, Bubendorf, Switzerland) were iodinated by the chloramin T method ([22]) with 1 mCi carrier-free Na^125I (NEZ033L010MC, Perkin Elmer, Waltham, MA, USA) and purified by HPLC (Analytic HPLC 1200 Series, Agilent, Santa Clara, CA, USA) (see Figure S1 in Supplementary Material). For competitive radioligand binding assays, 40,000 cells were seeded in 96-well plates and grown overnight. The next day, cells were incubated in binding buffer (50 mM Hepes, pH 7.4, 5 mM MgCl2, 1 mM CaCl2, 0.5% w/v BSA, cOmplete protease inhibitors) containing 100,000 counts per minute (cpm) [^125I]-Tyr^11-SST14 and increasing concentrations of unlabeled peptide. After 30 min at 37°C, cells were washed with ice-cold washing buffer (50 mM Tris–HCl, pH 7.4, 125 mM NaCl, 0.05% w/v BSA), lysed with 1 N NaOH, transferred to vials, and measured in a gamma counter (Wallac 1470 Wizard, Perkin Elmer, Waltham, MA, USA). The obtained cpm values were analyzed with GraphPad Prism 5.04, and IC50 values were calculated by non-linear regression (one site—fit logIC50, least squares fit).

The subject of test [3] is human SSTR2 in QGP-1-SSTR2 cells. The test can be described thus: microscopic SSTR2 internalization assay. In kind it is cell-based. As to conditions: QGP-1-SSTR2, 1 µM ligand, 30 min at 37°C, confocal microscopy. The procedure:
(§2) Cells were grown on coverslips for at least 24 h. […] Cells were washed with PBS, fixated in 1:1 acetone/methanol for 2 min, and incubated with anti-SSTR2 primary antibody (sc365502, Santa Cruz Biotechnology, Dallas, TX, USA) diluted 1:50 in PBS overnight at 4°C. After washing with PBS, cells were incubated with a Cy3-conjugated goat anti-mouse secondary antibody (#115-165-146, Jackson ImmunoResearch, West Grove, PA, USA) diluted 1:1,000 in PBS for 1 h at room temperature. After washing with PBS, coverslips were briefly dipped into 96% ethanol, air-dried, and mounted on glass slides with Immu-Mount (Thermo Fisher Scientific, Waltham, MA, USA). Mounted cells were imaged using a confocal laser scanning microscope (LSM510, Carl Zeiss, Jena, Germany) using a helium–neon laser at 543 nm, LP560 emission filter, and 40× or 63× NeoFluar oil immersion objectives. RIN-1038-SSTR2-GFP cells were not immunostained after fixation, but otherwise treated the same. To visualize GFP fluorescence, an argon laser at 488 nm, LP505 emission filter was utilized on the same microscope.

In test [4] the test system is human SSTR2 in BON-SSTR2 cells. Put plainly: microscopic SSTR2 internalization assay. The format is cell-based. As to conditions: BON-SSTR2, 1 µM ligand, 30 min at 37°C, confocal microscopy. As for the experimental part: as §2
Test [5] has as its system SSTR-binding sites at the cell surface of H727 cells. Put plainly: competitive [125I]-Tyr11-SST14 radioligand binding assay, H727 cells. On the set-up: species or system human. To be noted: only background binding, unlabeled peptide 0.01 nM–10 µM. As for the experimental part:
as §1

Test [6] has as its system SSTR-binding sites at the cell surface of LCC-18 cells. The test can be described thus: competitive [125I]-Tyr11-SST14 radioligand binding assay, LCC-18 cells. On the set-up: species or system human. As to conditions: only background binding, unlabeled peptide 0.01 nM–10 µM. The procedure:
as §1

Test [7] relates to SSTR-binding sites at the cell surface of BON cells. Put plainly: competitive [125I]-Tyr11-SST14 radioligand binding assay, BON cells. On the set-up: species or system human. As to conditions: BON whole cells, 30 min at 37°C, unlabeled peptide 0.01 nM–10 µM, gamma counter; read-out: IC50, displacement of [125I]-Tyr11-SST14. As for the experimental part: as §1
On the technique in general: Displacement assays read how much labelled ligand stays bound in the presence of the test substance.

Test [8] concerns SSTR-binding sites at the cell surface of UMC-11 cells. Put plainly: competitive [125I]-Tyr11-SST14 radioligand binding assay, UMC-11 cells. On the set-up: species or system human. As to conditions: UMC-11 whole cells, 30 min at 37°C, unlabeled peptide 0.01 nM–10 µM, gamma counter; read-out: IC50, displacement of [125I]-Tyr11-SST14. The procedure:
as §1

Turning to lanreotide, the median progression-free survival entry in test [1] is listed as “not reached”.
In the case of somatostatin-14, the “displacement of [125I]-Tyr11-SST14 binding” value in test [2], in test [5] and in test [6] was “no displacement” each time. The “SSTR2 internalization / redistribution” value in test [3] is given as “functional, ligand-dependent SSTR2 internalization”; in test [4] it was “functional, ligand-dependent SSTR2 internalization”. In addition, the IC50 (commonly the concentration that gives 50% inhibition) in test [7] was found to be 0.5 ± 0.16 nM; in test [8] it was 0.7 ± 0.29 nM.
